pIC50: −log10 of the molar value. Each block holds one compound with its values, some of them ahead of it. Activity calls are given as the source filed them. No cut-off for these calls is given here.
Legend:
[1] = biological target: T1, Transient receptor potential cation channel subfamily V member 3 (Homo sapiens, UniProt Q8NET8); test: Inhibition of human TRPV3 expressed in HEK293 cells assessed as reduction in 2-APB induced channel current at voltage ramp from -100 to +100 mV by whole-cell patch clamp electrophysiology; type: cell-based
T1 sequence (Q8NET8 whole entry): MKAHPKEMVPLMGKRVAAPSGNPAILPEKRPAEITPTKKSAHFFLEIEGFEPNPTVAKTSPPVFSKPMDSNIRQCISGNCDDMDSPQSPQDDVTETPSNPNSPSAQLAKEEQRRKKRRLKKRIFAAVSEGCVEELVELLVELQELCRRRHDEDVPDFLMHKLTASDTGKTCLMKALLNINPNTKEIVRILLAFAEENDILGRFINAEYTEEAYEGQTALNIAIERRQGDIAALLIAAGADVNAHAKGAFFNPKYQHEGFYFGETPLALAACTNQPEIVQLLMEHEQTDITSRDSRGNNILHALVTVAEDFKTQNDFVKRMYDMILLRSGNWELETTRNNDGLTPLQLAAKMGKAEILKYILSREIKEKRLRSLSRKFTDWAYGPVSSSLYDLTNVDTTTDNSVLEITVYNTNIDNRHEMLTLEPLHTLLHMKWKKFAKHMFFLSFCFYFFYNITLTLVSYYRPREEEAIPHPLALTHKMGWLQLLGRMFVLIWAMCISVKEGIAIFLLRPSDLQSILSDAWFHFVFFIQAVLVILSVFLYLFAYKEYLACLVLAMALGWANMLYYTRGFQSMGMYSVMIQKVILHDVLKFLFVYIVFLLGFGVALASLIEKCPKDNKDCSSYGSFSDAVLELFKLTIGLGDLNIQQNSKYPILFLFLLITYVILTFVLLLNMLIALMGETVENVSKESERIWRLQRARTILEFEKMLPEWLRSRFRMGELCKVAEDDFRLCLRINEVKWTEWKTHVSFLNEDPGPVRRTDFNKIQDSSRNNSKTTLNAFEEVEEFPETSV

Mus musculus [2] = species on record: Mus musculus; test: Antipruritic activity in carvacrol-induced scratching C57BL/6 mouse model assessed as inhibition of neck scratching behavior at 30 uM, ID pretreated for 30 mins followed by carvacrol stimulation and measured for 30 mins relative to control; type: functional; conditions: C57BL/6, 1 h, time 60 min
Mus musculus [3] = species on record: Mus musculus; test: Antipruritic activity in carvacrol-induced scratching C57BL/6 mouse model assessed as inhibition of neck scratching behavior at 300 uM, ID pretreated for 30 mins followed by carvacrol stimulation and measured for 30 mins relative to control; type: functional; conditions: C57BL/6, 1 h, time 60 min
Mus musculus [4] = species on record: Mus musculus; test: Antipruritic activity in histamine-induced scratching C57BL/6 mouse model assessed as inhibition of neck scratching behavior at 0.3 to 30 uM, ID pretreated for 30 mins followed by histamine stimulation and measured for 30 mins relative to control; type: functional; conditions: dose 0.3-30 µM, time 60 min, 1 h
[5] = biological target: T2, Transient receptor potential cation channel subfamily V member 3 (Homo sapiens) (UniProt Q8NET8); test: Inhibition of human TRPV3 expressed in CHO cells assessed as reduction in 2-APB-induced intracellular calcium flux at 20 uM measured for 60 mins by Fluo-4-AM dye based fluorescence assay; type: cell-based
T2 sequence (whole entry): T1 sequence (Q8NET8 whole entry)

[6] = biological target: T2, Transient receptor potential cation channel subfamily V member 3 (Homo sapiens); test: Inhibition of human TRPV3 expressed in CHO cells assessed as reduction in 2-APB induced channel current at 10 uM at -80 mV by whole-cell patch clamp electrophysiology; type: cell-based
[7] = biological target: T2, Transient receptor potential cation channel subfamily V member 3 (Homo sapiens); test: Inhibition of human TRPV3 expressed in CHO cells assessed as reduction in 2-APB induced channel current at 10 uM at +80 mV by whole-cell patch clamp electrophysiology; type: cell-based
[8] = biological target: T2, Transient receptor potential cation channel subfamily V member 3 (Homo sapiens); test: Irreversible inhibition of human TRPV3 expressed in CHO cells assessed as reduction in 2-APB induced channel current at 10 uM at -80 mV incubated prior to compound washout followed by 2-APB addition by whole-cell patch clamp electrophysiology; type: cell-based
[9] = biological target: T2, Transient receptor potential cation channel subfamily V member 3 (Homo sapiens); test: Irreversible inhibition of human TRPV3 expressed in CHO cells assessed as reduction in 2-APB induced channel current at 10 uM at +80 mV incubated prior to compound washout followed by 2-APB addition by whole-cell patch clamp electrophysiology; type: cell-based
[10] = biological target: T1, Transient receptor potential cation channel subfamily V member 3; test: Inhibition of human TRPV3 expressed in CHO cells assessed as reduction in 2-APB induced channel current at -80 mV by whole-cell patch clamp electrophysiology; type: cell-based
[11] = biological target: T1, Transient receptor potential cation channel subfamily V member 3; test: Inhibition of human TRPV3 expressed in CHO cells assessed as reduction in 2-APB induced channel current at +80 mV by whole-cell patch clamp electrophysiology; type: cell-based
[12] = biological target: T2, Transient receptor potential cation channel subfamily V member 3 (Homo sapiens); test: Inhibition of human TRPV3 expressed in CHO cells assessed as reduction in 2-APB induced maximal channel current at voltage ramps from -80 to +80 mV by whole-cell patch clamp electrophysiology relative to control; type: cell-based
[13] = biological target: Transient receptor potential cation channel subfamily V member 1 (Rattus norvegicus) (UniProt O35433); test: Inhibition of rat TRPV1 expressed in CHO cells assessed as reduction in capsaicin-induced intracellular calcium flux at 20 uM measured for 60 mins by Fluo-4-AM dye based fluorescence assay; type: cell-based
[14] = biological target: Transient receptor potential cation channel subfamily A member 1 (Rattus norvegicus) (UniProt Q6RI86); test: Inhibition of rat TRPA1 expressed in CHO cells assessed as reduction in AITC-induced intracellular calcium flux at 20 uM measured for 60 mins by Fluo-4-AM dye based fluorescence assay; type: cell-based
[15] = biological target: Transient receptor potential cation channel subfamily V member 4 (Homo sapiens) (UniProt Q9HBA0); test: Inhibition of human TRPV4 expressed in CHO cells assessed as reduction in GSK1016790A-induced intracellular calcium flux at 20 uM measured for 60 mins by Fluo-4-AM dye based fluorescence assay; type: cell-based
[16] = biological target: T3, Acid-sensing ion channel 1 (Rattus norvegicus) (UniProt P55926); test: Inhibition of rat ASIC1a expressed in Xenopus Oocytes at 20 uM at holding potential of -50 mV by whole-cell electrophysiology; type: cell-based; conditions: Oocyte
T3 sequence (whole entry): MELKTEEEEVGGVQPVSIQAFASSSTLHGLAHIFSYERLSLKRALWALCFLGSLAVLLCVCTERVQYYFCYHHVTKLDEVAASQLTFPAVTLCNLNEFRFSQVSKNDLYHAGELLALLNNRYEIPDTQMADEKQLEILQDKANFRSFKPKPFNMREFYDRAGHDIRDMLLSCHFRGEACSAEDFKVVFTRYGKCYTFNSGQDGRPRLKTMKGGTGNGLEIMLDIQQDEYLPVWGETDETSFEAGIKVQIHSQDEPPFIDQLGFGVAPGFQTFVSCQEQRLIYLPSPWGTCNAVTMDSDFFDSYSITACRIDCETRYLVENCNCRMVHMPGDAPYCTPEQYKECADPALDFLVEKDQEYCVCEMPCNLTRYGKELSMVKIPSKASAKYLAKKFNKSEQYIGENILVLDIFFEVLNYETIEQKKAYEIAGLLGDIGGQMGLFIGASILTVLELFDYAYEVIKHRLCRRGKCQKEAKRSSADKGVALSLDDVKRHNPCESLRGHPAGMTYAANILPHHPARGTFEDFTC

[17] = biological target: T4, Acid-sensing ion channel 3 (Homo sapiens) (UniProt Q9UHC3); test: Inhibition of human ASIC3 expressed in Xenopus Oocytes at 20 uM at holding potential of -50 mV by whole-cell electrophysiology; type: cell-based; conditions: Oocyte
T4 sequence (whole entry): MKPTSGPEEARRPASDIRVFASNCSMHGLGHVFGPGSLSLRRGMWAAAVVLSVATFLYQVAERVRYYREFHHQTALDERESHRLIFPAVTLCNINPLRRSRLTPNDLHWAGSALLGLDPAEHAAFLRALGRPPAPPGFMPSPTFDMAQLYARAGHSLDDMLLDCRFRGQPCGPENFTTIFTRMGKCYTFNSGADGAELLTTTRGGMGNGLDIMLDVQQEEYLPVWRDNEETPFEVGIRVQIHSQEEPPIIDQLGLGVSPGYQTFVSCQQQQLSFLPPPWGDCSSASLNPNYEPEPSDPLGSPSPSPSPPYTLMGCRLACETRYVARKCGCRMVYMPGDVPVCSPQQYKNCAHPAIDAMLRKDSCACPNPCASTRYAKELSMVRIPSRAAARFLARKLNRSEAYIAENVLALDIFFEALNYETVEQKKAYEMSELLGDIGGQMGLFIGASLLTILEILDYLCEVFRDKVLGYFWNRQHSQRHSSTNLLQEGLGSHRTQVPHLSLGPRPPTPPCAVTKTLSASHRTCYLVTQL

[18] = biological target: T1, Transient receptor potential cation channel subfamily V member 3; test: Inhibition of TRPV3 in human HaCaT cells assessed as reduction in carvacrol-induced calcium influx measured for 60 mins by Fluo-4-AM dye based fluorescence assay; type: cell-based
[19] = biological target: T2, Transient receptor potential cation channel subfamily V member 3 (Homo sapiens); test: Inhibition of TRPV3 in human HaCaT cells assessed as reduction in carvacrol-induced calcium influx measured for 60 mins by Fluo-4-AM dye based fluorescence assay relative to control; type: cell-based
[20] = biological target: T2, Transient receptor potential cation channel subfamily V member 3 (Homo sapiens); test: Inhibition of human TRPV3 expressed in CHO cells assessed as reduction in 2-APB induced channel current at +80 mV by whole-cell patch clamp electrophysiology relative to control; type: cell-based
[21] = biological target: T2, Transient receptor potential cation channel subfamily V member 3 (Homo sapiens); test: Inhibition of human TRPV3 expressed in CHO cells assessed as reduction in 2-APB induced channel current at -80 mV by whole-cell patch clamp electrophysiology relative to control; type: cell-based
HaCaT = test: Cytotoxicity against human HaCaT cells assessed as reduction in cell viability measured after 24 hrs by MTT assay; type: toxicity, cell-based
[22] = Induction of pruritic reaction in ICR mouse assessed as number of scratching bouts at 30 uM, ID measured within 30 mins (reference value: 6 +/- 1 No_Unit); type: toxicity; conditions: other, 0.5 h
[23] = Induction of pruritic reaction in ICR mouse assessed as number of scratching bouts at 100 uM, ID measured within 30 mins (reference value: 6 +/- 1 No_Unit); type: toxicity; conditions: other, 0.5 h
Mus musculus [24] = species on record: Mus musculus; test: Antipruritic activity in carvacrol-induced scratching ICR mouse model assessed as number of scratching bouts at 30 uM, ID pretreated for 30 mins followed by carvacrol stimulation and measured for 30 mins (reference value: 174 +/- 7); type: functional; conditions: time 60 min, 1 h
Mus musculus [25] = species on record: Mus musculus; test: Antipruritic activity in carvacrol-induced scratching ICR mouse model assessed as number of scratching bouts at 100 uM, ID pretreated for 30 mins followed by carvacrol stimulation and measured for 30 mins (reference value: 174 +/- 7); type: functional; conditions: time 60 min, 1 h
Mus musculus [26] = species on record: Mus musculus; test: Antipruritic activity in histamine-induced scratching ICR mouse model assessed as number of scratching bouts at 0.3 uM, ID pretreated for 30 mins followed by histamine stimulation and measured for 30 mins (reference value: 123 +/- 6); type: functional; conditions: time 60 min, 1 h
Mus musculus [27] = species on record: Mus musculus; test: Antipruritic activity in histamine-induced scratching ICR mouse model assessed as number of scratching bouts at 3 uM, ID pretreated for 30 mins followed by histamine stimulation and measured for 30 mins (reference value: 123 +/- 6); type: functional; conditions: time 60 min, 1 h
Mus musculus [28] = species on record: Mus musculus; test: Antipruritic activity in histamine-induced scratching ICR mouse model assessed as number of scratching bouts at 30 uM, ID pretreated for 30 mins followed by histamine stimulation and measured for 30 mins (reference value: 123 +/- 6); type: functional; conditions: time 60 min, 1 h
Mus musculus [29] = species on record: Mus musculus; test: Antipruritic activity in histamine-induced scratching ICR mouse model assessed as inhibition of neck scratching behavior at 3 uM, ID pretreated for 30 mins followed by histamine stimulation and measured for 10 mins relative to control; type: functional; conditions: 40 min
Mus musculus [30] = species on record: Mus musculus; test: Antipruritic activity in histamine-induced scratching ICR mouse model assessed as inhibition of neck scratching behavior at 3 uM, ID pretreated for 30 mins followed by histamine stimulation and measured after 10 to 30 mins; type: functional, organism-based; conditions: time 40-60 min
Mus musculus [31] = species on record: Mus musculus; test: Antipruritic activity in carvacrol-induced scratching ICR mouse model assessed as inhibition of neck scratching behavior at 100 uM, ID pretreated for 30 mins followed by carvacrol stimulation and measured for 30 mins relative to control; type: functional; conditions: 1 h, time 60 min

Sequence of Transient receptor potential cation channel subfamily V member 4 (Homo sapiens) (Q9HBA0 whole entry): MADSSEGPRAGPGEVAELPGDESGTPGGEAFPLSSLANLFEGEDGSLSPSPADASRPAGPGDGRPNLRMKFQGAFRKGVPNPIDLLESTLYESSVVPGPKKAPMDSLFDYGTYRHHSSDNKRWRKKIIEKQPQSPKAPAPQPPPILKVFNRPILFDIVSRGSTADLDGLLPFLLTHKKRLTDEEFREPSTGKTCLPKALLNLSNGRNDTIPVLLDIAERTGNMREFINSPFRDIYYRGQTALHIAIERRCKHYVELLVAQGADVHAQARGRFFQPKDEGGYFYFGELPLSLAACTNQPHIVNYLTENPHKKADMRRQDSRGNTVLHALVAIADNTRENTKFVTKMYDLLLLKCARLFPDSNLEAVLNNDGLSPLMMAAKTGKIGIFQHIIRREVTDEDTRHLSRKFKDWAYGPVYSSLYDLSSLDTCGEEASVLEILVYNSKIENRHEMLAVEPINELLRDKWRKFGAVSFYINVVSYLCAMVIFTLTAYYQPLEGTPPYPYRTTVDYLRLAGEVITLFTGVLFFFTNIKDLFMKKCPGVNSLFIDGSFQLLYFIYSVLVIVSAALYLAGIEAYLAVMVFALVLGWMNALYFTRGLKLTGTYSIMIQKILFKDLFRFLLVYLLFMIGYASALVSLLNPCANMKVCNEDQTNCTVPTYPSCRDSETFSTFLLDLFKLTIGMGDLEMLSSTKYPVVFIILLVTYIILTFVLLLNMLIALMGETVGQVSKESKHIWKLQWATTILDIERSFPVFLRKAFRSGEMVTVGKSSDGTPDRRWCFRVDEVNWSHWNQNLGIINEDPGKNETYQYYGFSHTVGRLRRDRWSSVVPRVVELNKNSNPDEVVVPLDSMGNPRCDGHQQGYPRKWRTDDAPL
Sequence of Transient receptor potential cation channel subfamily V member 1 (Rattus norvegicus) (O35433 whole entry): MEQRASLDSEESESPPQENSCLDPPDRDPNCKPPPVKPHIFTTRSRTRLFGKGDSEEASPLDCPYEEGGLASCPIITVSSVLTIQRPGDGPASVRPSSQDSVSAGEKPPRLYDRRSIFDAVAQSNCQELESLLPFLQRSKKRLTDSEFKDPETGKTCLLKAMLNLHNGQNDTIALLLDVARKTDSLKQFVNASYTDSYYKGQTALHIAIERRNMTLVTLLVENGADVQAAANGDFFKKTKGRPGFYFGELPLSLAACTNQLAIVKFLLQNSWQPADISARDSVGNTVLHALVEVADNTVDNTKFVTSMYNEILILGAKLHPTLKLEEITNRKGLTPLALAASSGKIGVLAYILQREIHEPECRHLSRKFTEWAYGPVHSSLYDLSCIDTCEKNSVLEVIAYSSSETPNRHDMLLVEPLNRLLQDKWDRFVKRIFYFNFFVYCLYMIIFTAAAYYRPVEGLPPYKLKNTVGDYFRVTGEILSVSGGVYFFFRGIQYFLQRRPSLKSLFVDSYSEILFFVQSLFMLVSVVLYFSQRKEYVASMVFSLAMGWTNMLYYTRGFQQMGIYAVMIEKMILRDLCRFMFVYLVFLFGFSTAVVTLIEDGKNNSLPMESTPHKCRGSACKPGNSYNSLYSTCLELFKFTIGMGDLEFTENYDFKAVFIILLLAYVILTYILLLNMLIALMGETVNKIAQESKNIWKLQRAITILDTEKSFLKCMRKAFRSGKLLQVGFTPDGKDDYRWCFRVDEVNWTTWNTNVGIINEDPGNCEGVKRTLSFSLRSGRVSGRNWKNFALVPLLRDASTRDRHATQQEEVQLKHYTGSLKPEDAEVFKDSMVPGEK
Sequence of Transient receptor potential cation channel subfamily A member 1 (Rattus norvegicus) (Q6RI86 whole entry): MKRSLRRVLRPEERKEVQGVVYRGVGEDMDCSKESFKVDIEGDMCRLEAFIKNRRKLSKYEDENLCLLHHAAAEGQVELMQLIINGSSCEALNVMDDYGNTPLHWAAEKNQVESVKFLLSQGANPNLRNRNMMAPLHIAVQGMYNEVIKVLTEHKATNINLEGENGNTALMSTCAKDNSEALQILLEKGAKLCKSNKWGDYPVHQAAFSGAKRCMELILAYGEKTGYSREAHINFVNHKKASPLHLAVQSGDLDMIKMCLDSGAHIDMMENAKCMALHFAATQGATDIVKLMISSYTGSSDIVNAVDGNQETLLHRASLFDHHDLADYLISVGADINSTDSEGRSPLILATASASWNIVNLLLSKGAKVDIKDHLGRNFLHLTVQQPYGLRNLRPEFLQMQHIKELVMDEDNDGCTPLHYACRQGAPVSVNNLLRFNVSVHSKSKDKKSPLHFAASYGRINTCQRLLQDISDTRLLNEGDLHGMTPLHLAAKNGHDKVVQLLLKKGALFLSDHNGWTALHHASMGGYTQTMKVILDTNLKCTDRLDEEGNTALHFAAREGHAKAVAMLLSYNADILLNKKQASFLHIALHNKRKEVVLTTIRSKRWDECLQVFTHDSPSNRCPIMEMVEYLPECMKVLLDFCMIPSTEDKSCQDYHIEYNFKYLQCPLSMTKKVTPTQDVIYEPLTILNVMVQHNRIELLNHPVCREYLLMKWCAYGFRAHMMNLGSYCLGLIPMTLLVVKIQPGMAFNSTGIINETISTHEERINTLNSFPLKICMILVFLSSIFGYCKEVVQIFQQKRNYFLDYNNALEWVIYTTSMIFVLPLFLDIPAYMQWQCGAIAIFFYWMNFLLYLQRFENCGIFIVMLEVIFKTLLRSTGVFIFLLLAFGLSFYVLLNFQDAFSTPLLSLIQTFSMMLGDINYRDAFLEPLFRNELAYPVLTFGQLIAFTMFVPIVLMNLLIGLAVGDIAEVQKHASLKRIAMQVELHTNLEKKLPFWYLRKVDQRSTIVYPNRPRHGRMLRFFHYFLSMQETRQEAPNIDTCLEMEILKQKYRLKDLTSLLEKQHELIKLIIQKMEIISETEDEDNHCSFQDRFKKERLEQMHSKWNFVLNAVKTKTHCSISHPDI

pIC50 [1]: 5.17
SMILES: C[C@@H]1O[C@@H](O[C@@H]2[C@@H](O)[C@H](OCCc3ccc(O)c(O)c3)O[C@H](CO[C@@H]3OC[C@](O)(CO)[C@H]3O)[C@H]2OC(=O)/C=C/c2ccc(O)c(O)c2)[C@H](O)[C@H](O)[C@H]1O
inhibition in vivo at 30 µM (Mus musculus [2]): ~56%
inhibition in vivo at 300 µM (Mus musculus [3]): 77%
inhibition (INH) (Mus musculus [4]): 57%

inhibition [5]: Active
inhibition [6]: Active
inhibition [7]: Active
inhibition [8]: Active
inhibition [9]: Active
pIC50 [10]: 6.25
pIC50 [11]: 6.10
fold change (FC) [12]: 2
inhibition [13]: inactive
inhibition [14]: inactive
inhibition [15]: inactive
inhibition [16]: inactive
inhibition [17]: inactive
pIC50 [18]: 6.07
Imax [19]: 43%
Imax [20]: 49%
Imax [21]: 50%
SMILES: C=C1CC[C@@H]2[C@](C)(CO)[C@H](O)CC[C@@]2(C)[C@@H]1/C=C/C1=CCOC1=O
Activity (HaCaT): Non-Toxic
Activity [22]: 8.1
Activity [23]: 10.6
Activity (Mus musculus [24]): 178
Activity (Mus musculus [25]): 129
Activity (Mus musculus [26]): 95
Activity (Mus musculus [27]): 57
Activity (Mus musculus [28]): 59
inhibition in vivo at 3 µM (Mus musculus [29]): ~40%
inhibition (Mus musculus [30]): Active
inhibition in vivo at 100 µM (Mus musculus [31]): ~26%

From ChEMBL document CHEMBL5576094, “A Diterpenoid of the Medicinal Plant Andrographis paniculata Targets Cutaneous TRPV3 Channel and Relieves Itch” (J Nat Prod, 2024)
